# Results from ChEMBL document CHEMBL1671627, “Increasing trends in antimicrobial resistance among clinically important anaerobes and Bacteroides fragilis isolates causing nosocomial infections: emerging resistance to carbapenems” (2008).
# What was measured:
# [1] = test system: Bacteroides fragilis; assay: Antibacterial activity against Bacteroides fragilis assessed as susceptible isolates by CLSI agar dilution method; assay type: functional
# [2] = test system: Bacteroides fragilis; assay: Antibacterial activity against Bacteroides fragilis assessed as resistant isolates by CLSI agar dilution method; assay type: functional
# [3] = test system: Bacteroides thetaiotaomicron; assay: Antibacterial activity against beta-lactamase producing Bacteroides thetaiotaomicron assessed as susceptible isolates by CLSI agar dilution method; assay type: functional
# [4] = test system: Bacteroides thetaiotaomicron; assay: Antibacterial activity against beta-lactamase producing Bacteroides thetaiotaomicron assessed as resistant isolates by CLSI agar dilution method; assay type: functional
# [5] = test system: Phocaeicola vulgatus; assay: Antibacterial activity against beta-lactamase producing Bacteroides vulgatus by CLSI agar dilution method; assay type: functional
# [6] = test system: Phocaeicola vulgatus; assay: Antibacterial activity against beta-lactamase producing Bacteroides vulgatus assessed as susceptible isolates by CLSI agar dilution method; assay type: functional
# [7] = test system: Phocaeicola vulgatus; assay: Antibacterial activity against beta-lactamase producing Bacteroides vulgatus assessed as resistant isolates by CLSI agar dilution method; assay type: functional
# [8] = test system: Bacteroides uniformis; assay: Antibacterial activity against beta-lactamase producing Bacteroides uniformis by CLSI agar dilution method; assay type: functional
# [9] = test system: Bacteroides uniformis; assay: Antibacterial activity against beta-lactamase producing Bacteroides uniformis assessed as susceptible isolates by CLSI agar dilution method; assay type: functional
# [10] = test system: Bacteroides uniformis; assay: Antibacterial activity against beta-lactamase producing Bacteroides uniformis assessed as resistant isolates by CLSI agar dilution method; assay type: functional
# [11] = test system: Bacteroides caccae; assay: Antibacterial activity against beta-lactamase producing Bacteroides caccae by CLSI agar dilution method; assay type: functional
# [12] = test system: Bacteroides caccae; assay: Antibacterial activity against beta-lactamase producing Bacteroides caccae assessed as susceptible isolates by CLSI agar dilution method; assay type: functional
# [13] = test system: Bacteroides caccae; assay: Antibacterial activity against beta-lactamase producing Bacteroides caccae assessed as resistant isolates by CLSI agar dilution method; assay type: functional
# [14] = test system: Fusobacterium varium; assay: Antibacterial activity against Fusobacterium varium by CLSI agar dilution method; assay type: functional
# [15] = test system: Fusobacterium nucleatum; assay: Antibacterial activity against Fusobacterium nucleatum by CLSI agar dilution method; assay type: functional
# [16] = test system: Fusobacterium mortiferum; assay: Antibacterial activity against Fusobacterium mortiferum by CLSI agar dilution method; assay type: functional
# [17] = test system: Fusobacterium necrophorum; assay: Antibacterial activity against Fusobacterium necrophorum by CLSI agar dilution method; assay type: functional
# [18] = test system: Fusobacterium varium; assay: Antibacterial activity against Fusobacterium varium assessed as susceptible isolates by CLSI agar dilution method; assay type: functional
# [19] = test system: Fusobacterium nucleatum; assay: Antibacterial activity against Fusobacterium nucleatum assessed as susceptible isolates by CLSI agar dilution method; assay type: functional
# [20] = test system: Fusobacterium mortiferum; assay: Antibacterial activity against Fusobacterium mortiferum assessed as susceptible isolates by CLSI agar dilution method; assay type: functional
# [21] = test system: Fusobacterium necrophorum; assay: Antibacterial activity against Fusobacterium necrophorum assessed as susceptible isolates by CLSI agar dilution method; assay type: functional
# [22] = test system: Fusobacterium varium; assay: Antibacterial activity against Fusobacterium varium assessed as resistant isolates by CLSI agar dilution method; assay type: functional
# [23] = test system: Fusobacterium nucleatum; assay: Antibacterial activity against Fusobacterium nucleatum assessed as resistant isolates by CLSI agar dilution method; assay type: functional
# [24] = test system: Fusobacterium mortiferum; assay: Antibacterial activity against Fusobacterium mortiferum assessed as resistant isolates by CLSI agar dilution method; assay type: functional
# [25] = test system: Fusobacterium necrophorum; assay: Antibacterial activity against Fusobacterium necrophorum assessed as resistant isolates by CLSI agar dilution method; assay type: functional
# [26] = test system: Prevotella buccae; assay: Antibacterial activity against Prevotella buccae by CLSI agar dilution method; assay type: functional; conditions: Segatella buccae
# [27] = test system: Prevotella bivia; assay: Antibacterial activity against Prevotella bivia by CLSI agar dilution method; assay type: functional
# [28] = test system: Prevotella intermedia; assay: Antibacterial activity against Prevotella intermedia by CLSI agar dilution method; assay type: functional
# [29] = test system: Prevotella melaninogenica; assay: Antibacterial activity against Prevotella melaninogenica by CLSI agar dilution method; assay type: functional
# [30] = test system: Prevotella buccae; assay: Antibacterial activity against Prevotella buccae assessed as susceptible isolates by CLSI agar dilution method; assay type: functional, Segatella buccae
# [31] = test system: Prevotella bivia; assay: Antibacterial activity against Prevotella bivia assessed as susceptible isolates by CLSI agar dilution method; assay type: functional
# [32] = test system: Prevotella intermedia; assay: Antibacterial activity against Prevotella intermedia assessed as susceptible isolates by CLSI agar dilution method; assay type: functional
# [33] = test system: Prevotella melaninogenica; assay: Antibacterial activity against Prevotella melaninogenica assessed as susceptible isolates by CLSI agar dilution method; assay type: functional
# [34] = test system: Prevotella buccae; assay: Antibacterial activity against Prevotella buccae assessed as resistant isolates by CLSI agar dilution method; assay type: functional, Segatella buccae
# [35] = test system: Prevotella bivia; assay: Antibacterial activity against Prevotella bivia assessed as resistant isolates by CLSI agar dilution method; assay type: functional
# [36] = test system: Prevotella intermedia; assay: Antibacterial activity against Prevotella intermedia assessed as resistant isolates by CLSI agar dilution method; assay type: functional
# [37] = test system: Prevotella melaninogenica; assay: Antibacterial activity against Prevotella melaninogenica assessed as resistant isolates by CLSI agar dilution method; assay type: functional
# [38] = test system: Veillonella parvula; assay: Antibacterial activity against Veillonella parvula by CLSI agar dilution method; assay type: functional
# [39] = test system: Clostridium perfringens; assay: microbe, parasite or virus in culture; assay type: functional
# [40] = test system: Clostridium paraputrificum; assay: Antibacterial activity against beta-lactamase producing Clostridium paraputrificum by CLSI agar dilution method; assay type: functional
# [41] = test system: Clostridium septicum; assay: Antibacterial activity against beta-lactamase producing Clostridium septicum by CLSI agar dilution method; assay type: functional
# [42] = test system: Clostridium tertium; assay: Antibacterial activity against beta-lactamase producing Clostridium tertium by CLSI agar dilution method; assay type: functional
# [43] = test system: Clostridium paraputrificum; assay: Antibacterial activity against beta-lactamase producing Clostridium paraputrificum assessed as susceptible isolates by CLSI agar dilution method; assay type: functional
# [44] = test system: Clostridium septicum; assay: Antibacterial activity against beta-lactamase producing Clostridium septicum assessed as susceptible isolates by CLSI agar dilution method; assay type: functional
# [45] = test system: Clostridium tertium; assay: Antibacterial activity against beta-lactamase producing Clostridium tertium assessed as susceptible isolates by CLSI agar dilution method; assay type: functional
# [46] = test system: Bacteroides fragilis; assay: Antibacterial activity against Bacteroides fragilis by CLSI agar dilution method; assay type: functional
# [47] = test system: Bacteroides thetaiotaomicron; assay: Antibacterial activity against beta-lactamase producing Bacteroides thetaiotaomicron by CLSI agar dilution method; assay type: functional
# [48] = test system: Clostridium paraputrificum; assay: Antibacterial activity against beta-lactamase producing Clostridium paraputrificum assessed as resistant isolates by CLSI agar dilution method; assay type: functional
# [49] = test system: Clostridium septicum; assay: Antibacterial activity against beta-lactamase producing Clostridium septicum assessed as resistant isolates by CLSI agar dilution method; assay type: functional
# [50] = test system: Clostridium tertium; assay: Antibacterial activity against beta-lactamase producing Clostridium tertium assessed as resistant isolates by CLSI agar dilution method; assay type: functional
# [51] = test system: Peptostreptococcus anaerobius; assay: Antibacterial activity against beta-lactamase producing Peptostreptococcus anaerobius by CLSI agar dilution method; assay type: functional
# [52] = test system: Peptostreptococcus anaerobius; assay: Antibacterial activity against beta-lactamase producing Peptostreptococcus anaerobius assessed as susceptible isolates by CLSI agar dilution method; assay type: functional
# [53] = test system: Peptostreptococcus anaerobius; assay: Antibacterial activity against beta-lactamase producing Peptostreptococcus anaerobius assessed as resistant isolates by CLSI agar dilution method; assay type: functional
# [54] = test system: Parvimonas micra; assay: Antibacterial activity against beta-lactamase producing Micromonas micros by CLSI agar dilution method; assay type: functional
# [55] = test system: Parvimonas micra; assay: Antibacterial activity against beta-lactamase producing Micromonas micros assessed as susceptible isolates by CLSI agar dilution method; assay type: functional
# [56] = test system: Parvimonas micra; assay: Antibacterial activity against beta-lactamase producing Micromonas micros assessed as resistant isolates by CLSI agar dilution method; assay type: functional
# [57] = test system: Peptoniphilus asaccharolyticus; assay: Antibacterial activity against beta-lactamase producing Peptoniphilus asaccharolyticus by CLSI agar dilution method; assay type: functional
# [58] = test system: Peptoniphilus asaccharolyticus; assay: Antibacterial activity against beta-lactamase producing Peptoniphilus asaccharolyticus assessed as susceptible isolates by CLSI agar dilution method; assay type: functional
# [59] = test system: Peptoniphilus asaccharolyticus; assay: Antibacterial activity against beta-lactamase producing Peptoniphilus asaccharolyticus assessed as resistant isolates by CLSI agar dilution method; assay type: functional
# [60] = test system: Finegoldia magna; assay: Antibacterial activity against beta-lactamase producing Finegoldia magna by CLSI agar dilution method; assay type: functional
# [61] = test system: Finegoldia magna; assay: Antibacterial activity against beta-lactamase producing Finegoldia magna assessed as susceptible isolates by CLSI agar dilution method; assay type: functional
# [62] = test system: Finegoldia magna; assay: Antibacterial activity against beta-lactamase producing Finegoldia magna assessed as resistant isolates by CLSI agar dilution method; assay type: functional
smiles,measurement,setting,value
C[C@@H](O)[C@H]1C(=O)N2C(C(=O)O)=C(S[C@@H]3CN[C@H](C(=O)N(C)C)C3)[C@H](C)[C@H]12 [MEROPENEM],Activity,[1],88%
same,Activity,[2],5%
same,Activity,[3],97%
same,Activity,[4],0%
same,MIC50,[5],0.5 µg/mL
same,MIC90,[5],2 µg/mL
same,Activity,[6],96%
same,Activity,[7],4%
same,MIC50,[8],0.5 µg/mL
same,MIC90,[8],2 µg/mL
same,Activity,[9],96%
same,Activity,[10],4%
same,MIC50,[11],0.5 µg/mL
same,MIC90,[11],2 µg/mL
same,Activity,[12],96%
same,Activity,[13],4%
same,MIC50,[14],0.06 µg/mL
same,MIC90,[14],0.12 µg/mL
same,MIC50,[15],0.06 µg/mL
same,MIC90,[15],0.12 µg/mL
same,MIC50,[16],0.06 µg/mL
same,MIC90,[16],0.12 µg/mL
same,MIC50,[17],0.06 µg/mL
same,MIC90,[17],0.12 µg/mL
same,Activity,[18],92%
same,Activity,[19],92%
same,Activity,[20],92%
same,Activity,[21],92%
same,Activity,[22],8%
same,Activity,[23],8%
same,Activity,[24],8%
same,Activity,[25],8%
same,MIC50,[26],0.12 µg/mL
same,MIC90,[26],0.25 µg/mL
same,MIC50,[27],0.12 µg/mL
same,MIC90,[27],0.25 µg/mL
same,MIC50,[28],0.12 µg/mL
same,MIC90,[28],0.25 µg/mL
same,MIC50,[29],0.12 µg/mL
same,MIC90,[29],0.25 µg/mL
same,Activity,[30],100%
same,Activity,[31],100%
same,Activity,[32],100%
same,Activity,[33],100%
same,Activity,[34],0%
same,Activity,[35],0%
same,Activity,[36],0%
same,Activity,[37],0%
same,MIC,[38],0.06 µg/mL
same,MIC,[39],0.03 µg/mL
same,MIC50,[39],0.03 µg/mL
same,MIC90,[39],2 µg/mL
same,MIC,[40],0.03 µg/mL
same,MIC50,[40],0.03 µg/mL
same,MIC90,[40],2 µg/mL
same,MIC,[41],0.03 µg/mL
same,MIC50,[41],0.03 µg/mL
same,MIC90,[41],2 µg/mL
same,MIC,[42],0.03 µg/mL
same,MIC50,[42],0.03 µg/mL
same,MIC90,[42],2 µg/mL
same,Activity,[43],100%
same,Activity,[44],100%
same,Activity,[45],100%
same,MIC50,[46],0.28 µg/mL
same,MIC90,[46],8 µg/mL
same,MIC50,[47],0.25 µg/mL
same,MIC90,[47],2 µg/mL
same,Activity,[48],0%
same,Activity,[49],0%
same,Activity,[50],0%
same,MIC50,[51],0.06 µg/mL
same,MIC90,[51],0.5 µg/mL
same,Activity,[52],100%
same,Activity,[53],0%
same,MIC50,[54],0.06 µg/mL
same,MIC90,[54],0.5 µg/mL
same,Activity,[55],100%
same,Activity,[56],0%
same,MIC50,[57],0.06 µg/mL
same,MIC90,[57],0.5 µg/mL
same,Activity,[58],100%
same,Activity,[59],0%
same,MIC50,[60],0.06 µg/mL
same,MIC90,[60],0.5 µg/mL
same,Activity,[61],100%
same,Activity,[62],0%
